# Test results: ChEMBL document CHEMBL5053545, “Iterative Structure-Based Optimization of Short Peptides Targeting the Bacterial Sliding Clamp” (J Med Chem, 2021)
# Calls of active or inactive are those of the source. No cut-off for these calls is given here. *1 amine or outer side, *2 acyl side, *3 side chain or, on linkers, in order; H or OH if unused. Where a SMILES comes first, the peptide text is derived from it. [ ]: non-standard residue; d: D form. The star is where a group is joined. Acryloyl(3-(3-pyridyl),E) = O=C(/C=C/c1cccnc1)*; Phe(3,4-Cl2) = N[C@@H](Cc1ccc(Cl)c(Cl)c1)C(=O)O; Phe(3,4-F2) = N[C@@H](Cc1ccc(F)c(F)c1)C(=O)O; Acetyl(1-naphthyl) = O=C(Cc1cccc2ccccc12)*; Oic = O=C(O)[C@@H]1C[C@@H]2CCCC[C@@H]2N1; Cinnamoyl(4-F) = O=C(/C=C/c1ccc(F)cc1)*; Hydrocinnamoyl = O=C(CCc1ccccc1)*; NH(4-MeO-phenyl) = COc1ccc(N*)cc1; X2 = O=C(CN(Cc1ccccn1)[*:1])[*:2]; X3 = CN(C)/C(=N\CC(=O)*)N1CCOCC1; NFurfurylGly = O=C(O)CNCc1ccco1; Cha = N[C@@H](CC1CCCCC1)C(=O)O; NMeD = CN[C@@H](CC(=O)O)C(=O)O; X5 = CN(C)C(=NCC(=O)*)N(C)C; X1 = O=C(/C=C/c1ccccc1)*; CO = O=C([*:1])[*:2]; Sar = CNCC(=O)O
# How the values were obtained:
# [1] = Inhibition of SC-dependent DNA replication in Escherichia coli using pU118 DNA as substrate preincubated for 10 mins followed by substrate addition and measured after 6 mins by PAGE electrophoresis
# Escherichia coli [2] = assay: Binding affinity to Escherichia coli sliding clamp assessed as association rate constant by ITC analysis
# Escherichia coli [3] = assay: Binding affinity to Escherichia coli sliding clamp assessed as gibbs free energy change by ITC analysis
# Escherichia coli [4] = assay: Binding affinity to Escherichia coli sliding clamp assessed as dissociation rate constant by ITC analysis
# [5] = Binding affinity to Escherichia coli sliding clamp assessed as dissociation constant by ITC analysis
# Escherichia coli [6] = assay: Antimicrobial activity against Escherichia coli D22 at 128 ug/ml incubated 18 to 24 hrs by broth microdilution method; format: functional, organism-based; conditions: dose 128.0 µg/ml, time 18-24 hrs
Compound,IC50 [1] [nM],K (Escherichia coli [2]),deltaG (Escherichia coli [3]) [kcal/mol],K (Escherichia coli [4]),Kd [5] [nM],Activity (Escherichia coli [6])
CC(=O)N[C@@H](CCC(N)=O)C(=O)N[C@@H](CC1CCCCC1)C(=O)N[C@@H](CC(=O)O)C(=O)N[C@@H](CC(C)C)C(=O)N[C@@H](Cc1ccccc1)C(=O)O (Ac-Q[Cha]DLF-OH),3200,4 10^4/M/s,-9.2,7.4 10^-3/s,194,–
"CC(=O)N[C@@H](CCC(N)=O)C(=O)N[C@@H](CC1CCCCC1)C(=O)N[C@@H](CC(=O)O)C(=O)N[C@@H](CC(C)C)C(=O)N1[C@H](C(=O)N[C@@H](Cc2ccc(Cl)c(Cl)c2)C(=O)O)C[C@@H]2CCCC[C@@H]21 (Ac-Q[Cha]DL[Oic][Phe(3,4-Cl2)]-OH)",150,6 10^4/M/s,-10.1,2.3 10^-3/s,39,inactive
CC(=O)N[C@@H](CCC(N)=O)C(=O)N[C@@H](CC1CCCCC1)C(=O)N[C@@H](CC(=O)O)C(=O)N[C@@H](CC(C)C)C(=O)N(C)CC(=O)N[C@@H](CC(C)C)C(=O)O (Ac-Q[Cha]DL[Sar]L-OH),–,4 10^4/M/s,-8.5,2.1 10^-2/s,583,inactive
CC(C)C[C@H](NC(=O)[C@H](CC(=O)O)NC(=O)[C@H](CC1CCCCC1)NC(=O)[C@H](CCC(N)=O)NC(=O)CNCc1ccco1)C(=O)N[C@@H](Cc1ccccc1)C(=O)O (H-[NFurfurylGly]Q[Cha]DLF-OH),–,4.8 10^4/M/s,-9.2,8.6 10^-3/s,171,–
CC(C)C[C@H](NC(=O)[C@H](CC(=O)O)NC(=O)[C@H](CC1CCCCC1)NC(=O)[C@H](CCC(N)=O)NC(=O)CNCc1ccccn1)C(=O)N[C@@H](Cc1ccccc1)C(=O)O (H-[X2]Q[Cha]DLF-OH),–,3.4 10^4/M/s,-9.2,5.7 10^-3/s,172,–
CC(C)C[C@H](NC(=O)[C@H](CC(=O)O)NC(=O)[C@H](CC1CCCCC1)NC(=O)[C@H](CCC(N)=O)NC(=O)CCc1ccccc1)C(=O)N[C@@H](Cc1ccccc1)C(=O)O (Hydrocinnamoyl-Q[Cha]DLF-OH),–,5.5 10^4/M/s,-9.1,6.7 10^-3/s,123,–
CC(C)C[C@H](NC(=O)[C@H](CC(=O)O)NC(=O)[C@H](CC1CCCCC1)NC(=O)[C@H](CCC(N)=O)NC(=O)/C=C/c1ccccc1)C(=O)N[C@@H](Cc1ccccc1)C(=O)O (X1-Q[Cha]DLF-OH),–,4.6 10^4/M/s,-9.4,6.5 10^-3/s,129,inactive
CC(C)C[C@H](NC(=O)[C@@H]1CCCN1C(=O)[C@H](CC(C)C)NC(=O)[C@H](CC(=O)O)NC(=O)[C@H](CC1CCCCC1)NC(=O)[C@H](CCC(N)=O)NC(=O)/C=C/c1ccccc1)C(=O)O (X1-Q[Cha]DLPL-OH),–,6 10^4/M/s,-9.4,8 10^-3/s,132,–
CC(C)C[C@H](NC(=O)[C@H](CC(=O)O)NC(=O)[C@H](CC1CCCCC1)NC(=O)[C@H](CCC(N)=O)NC(=O)C/N=C(\N(C)C)N1CCOCC1)C(=O)N[C@@H](Cc1ccccc1)C(=O)O (X3-Q[Cha]DLF-OH),–,3.4 10^4/M/s,-9,1 10^-2/s,276,–
CC(C)C[C@H](NC(=O)[C@H](CC(=O)O)NC(=O)[C@H](CC1CCCCC1)NC(=O)[C@H](CCC(N)=O)NC(=O)CN=C(N(C)C)N(C)C)C(=O)N[C@@H](Cc1ccccc1)C(=O)O (X5-Q[Cha]DLF-OH),–,3.4 10^4/M/s,-8.7,1.1 10^-2/s,353,–
CC(C)C[C@H](NC(=O)[C@H](CC(=O)O)NC(=O)[C@H](CC1CCCCC1)NC(=O)[C@H](CCC(N)=O)NC(=O)Cc1cccc2ccccc12)C(=O)N[C@@H](Cc1ccccc1)C(=O)O ({Acetyl(1-naphthyl)}-Q[Cha]DLF-OH),–,6.5 10^4/M/s,-9.6,5.7 10^-3/s,89,–
"CC(C)C[C@H](NC(=O)[C@H](CC(=O)O)NC(=O)[C@H](CC1CCCCC1)NC(=O)[C@H](CCC(N)=O)NC(=O)/C=C/c1cccnc1)C(=O)N[C@@H](Cc1ccccc1)C(=O)O ({Acryloyl(3-(3-pyridyl),E)}-Q[Cha]DLF-OH)",–,4.6 10^4/M/s,-9.3,7.4 10^-3/s,156,inactive
"CC(C)C[C@H](NC(=O)[C@H](CC(=O)O)N(C)C(=O)[C@H](CC1CCCCC1)NC(=O)[C@H](CCC(N)=O)NC(=O)/C=C/c1cccnc1)C(=O)N1CCC[C@H]1C(=O)N[C@@H](Cc1ccccc1)C(=O)O ({Acryloyl(3-(3-pyridyl),E)}-Q[Cha][NMeD]LPF-OH)",–,1.4 10^5/M/s,-10.2,5.2 10^-3/s,35,inactive
"CC(C)C[C@H](NC(=O)[C@@H]1CCCN1C(=O)[C@H](CC(C)C)NC(=O)[C@H](CC(=O)O)N(C)C(=O)[C@H](CC1CCCCC1)NC(=O)[C@H](CCC(N)=O)NC(=O)/C=C/c1cccnc1)C(=O)O ({Acryloyl(3-(3-pyridyl),E)}-Q[Cha][NMeD]LPL-OH)",–,6.3 10^4/M/s,-9.2,1.1 10^-2/s,177,–
"CC(C)C[C@H](NC(=O)[C@H](CC(=O)O)N(C)C(=O)[C@H](CC1CCCCC1)NC(=O)[C@H](CCC(N)=O)NC(=O)/C=C/c1cccnc1)C(=O)N1[C@H](C(=O)N[C@@H](Cc2ccccc2)C(=O)O)C[C@@H]2CCCC[C@@H]21 ({Acryloyl(3-(3-pyridyl),E)}-Q[Cha][NMeD]L[Oic]F-OH)",–,4.7 10^4/M/s,-9.5,5.5 10^-3/s,118,–
"CC(C)C[C@H](NC(=O)[C@H](CC(=O)O)N(C)C(=O)[C@H](CC1CCCCC1)NC(=O)[C@H](CCC(N)=O)NC(=O)/C=C/c1cccnc1)C(=O)N[C@@H](Cc1ccc(Cl)c(Cl)c1)C(=O)O ({Acryloyl(3-(3-pyridyl),E)}-Q[Cha][NMeD]L[Phe(3,4-Cl2)]-OH)",–,1.1 10^5/M/s,-10.1,5.5 10^-3/s,46,inactive
CC(C)C[C@H](NC(=O)[C@H](CC(=O)O)NC(=O)[C@H](CC1CCCCC1)NC(=O)[C@H](CCC(N)=O)NC(=O)/C=C/c1ccc(F)cc1)C(=O)N[C@@H](Cc1ccccc1)C(=O)O ({Cinnamoyl(4-F)}-Q[Cha]DLF-OH),–,4.6 10^4/M/s,-9.3,6.3 10^-3/s,144,–
"CC(C)C[C@H](NC(=O)[C@H](CC(=O)O)N(C)C(=O)[C@H](CC1CCCCC1)NC(=O)[C@H](CCC(N)=O)NC(=O)/C=C/c1ccc(F)cc1)C(=O)N[C@@H](Cc1ccc(F)c(F)c1)C(=O)O ({Cinnamoyl(4-F)}-Q[Cha][NMeD]L[Phe(3,4-F2)]-OH)",–,5.1 10^4/M/s,-9.6,5.7 10^-3/s,99,–
COc1ccc(NC(=O)N[C@@H](CCC(N)=O)C(=O)N[C@@H](CC2CCCCC2)C(=O)N[C@@H](CC(=O)O)C(=O)N[C@@H](CC(C)C)C(=O)N[C@@H](Cc2ccccc2)C(=O)O)cc1 ({NH(4-MeO-phenyl)-CO}-Q[Cha]DLF-OH),–,4 10^4/M/s,-9.8,2.8 10^-3/s,73,–
"COc1ccc(NC(=O)N[C@@H](CCC(N)=O)C(=O)N[C@@H](CC2CCCCC2)C(=O)N(C)[C@@H](CC(=O)O)C(=O)N[C@@H](CC(C)C)C(=O)N[C@@H](Cc2ccc(Cl)c(Cl)c2)C(=O)O)cc1 ({NH(4-MeO-phenyl)-CO}-Q[Cha][NMeD]L[Phe(3,4-Cl2)]-OH)",–,4.2 10^4/M/s,-9,1.1 10^-3/s,266,–
